Key:
OVCAR-5 = assay: NCI DTP 60 cell line screen, SRB
HOP-62 = assay: cells; settings: Homo sapiens, HOP-62, 48 h
Breast Cancer subpanel = assay: cells
Method: (§1) At the first stage of biological activity study, the antitumor activity screening of the selected compounds 2b, 2c, 2f, 2h, and 2j was performed according to the NCI DTP (USA) standard protocol at the concentrations ranging from 10^−4 to 10^−8 M toward 60 tumor cell lines. The percentage of growth was evaluated spectrophotometrically versus controls not treated with test agents after 48 h exposure and using SRB protein assay to estimate cell viability or growth. Dose–response parameters were calculated for each cell line: GI50—molar concentration of the compound that inhibits 50% net cell growth; TGI—molar concentration of the compound leading to the total inhibition; and LC50—molar concentration of the compound leading to 50% net cell death. Furthermore, mean graph midpoints (MG_MID) were calculated for each of the parameters, giving an average activity parameter over all cell lines for the tested compound. For the MG_MID calculation, insensitive cell lines were included with the highest concentration tested.
(§2) The selectivity index (SI) obtained by dividing the full panel MG-MID (mM) of the tested compound by their individual subpanel MG-MID (mM) was considered as a measure of selectivity of anticancer activity (Table 3).
(§3) Primary anticancer assay was performed on a panel of approximately sixty human tumor cell lines derived from nine neoplastic diseases, in accordance with the protocol of the Drug Evaluation Branch, National Cancer Institute, Bethesda. Tested compounds were added to the culture at a single concentration (10^−5 M) and the cultures were incubated for 48 h. End point determinations were made with a protein binding dye, sulforhodamine B (SRB). […] The percentage growth was evaluated spectrophotometrically versus controls not treated with test agents.
(§4) Dose–response parameters (GI50, TGI, LC50) were calculated for each compound. […] The drug concentration resulting in total growth inhibition (TGI) was calculated from Ti = Tz. The LC50 (concentration of drug resulting in a 50% reduction in the measured protein at the end of the drug treatment as compared to that at the beginning) indicating a net loss of cells following treatment was calculated from [(Ti − Tz)/Tz] × 100 = −50 (2). Values were calculated for each of these parameters if the level of activity was reached; however, if the effect was not reached or was excessive, the value for that parameter was expressed as more or less than the maximum or minimum concentration tested.

Leukemia subpanel = assay: cells
Method: as §1, §2, §3, §4

Prostate Cancer subpanel = assay: cells
Method: as §1, §2, §3, §4

Ovarian Cancer subpanel = assay: cells
Method: as §1, §2, §3, §4

Melanoma subpanel = assay: cells
Method: as §1, §2, §3, §4

[1] = test system: Non-Small Cell Lung Cancer subpanel; assay: cells
Method: as §1, §2, §3, §4

CNS Cancer subpanel = assay: cells
Method: as §1, §2, §3, §4

Renal Cancer subpanel = assay: cells
Method: as §1, §2, §3, §4

Colon Cancer subpanel = assay: cells
Method: as §1, §2, §3, §4

EKVX = assay: cells; settings: Homo sapiens, 48 h
SK-MEL-2 [2] = assay: cells; settings: Homo sapiens, SK-MEL-2, 48 h
SK-MEL-2 [3] = settings: SK-MEL-2 (Melanoma), 48 h, SRB
M14 = assay: NCI DTP 60 cell line screen, SRB
LOX IMVI = assay: cells; settings: Homo sapiens, 48 h
HT-29 = assay: NCI DTP 60 cell line screen, SRB
OVCAR-4 = assay: NCI DTP 60 cell line screen, SRB
[4] = Homo sapiens, read-out: MG_MID, GI50
[5] = Homo sapiens, read-out: MG_MID, LC50
[6] = full panel MG_MID / Breast Cancer subpanel MG_MID
[7] = full panel MG_MID / Leukemia subpanel MG_MID
[8] = full panel MG_MID / Prostate Cancer subpanel MG_MID
[9] = full panel MG_MID / Ovarian Cancer subpanel MG_MID
[10] = full panel MG_MID / Melanoma subpanel MG_MID
[11] = full panel MG_MID / Non-Small Cell Lung Cancer subpanel MG_MID
[12] = full panel MG_MID / CNS Cancer subpanel MG_MID
[13] = full panel MG_MID / Renal Cancer subpanel MG_MID
[14] = full panel MG_MID / Colon Cancer subpanel MG_MID

Compound: O=C(O)C(Cc1ccccc1)N1C(=O)/C(=C/C(Cl)=C/c2ccc([N+](=O)[O-])cc2)SC1=S (centres unmarked) [Compound 2j, 2-{5-[(Z,2Z)-2-Chloro-3-(4-nitrophenyl)-2-propenylidene]-4-oxo-2-thioxothiazolidin-3-yl}-3-phenylpropanoic acid]
- GI50 (OVCAR-5; Homo sapiens, OVCAR-5, 48 h): 2.82 µM
- CC50 (OVCAR-5; Homo sapiens, OVCAR-5, 48 h, read-out: LC50): > 100 µM
- TGI (OVCAR-5; OVCAR-5 (Ovarian Cancer), 48 h, SRB): 7.91 µM
- GI50 (HOP-62): 2.31 µM
- CC50 (HOP-62; read-out: LC50): > 100 µM
- TI (Therapeutic Index) (RPMI-8226; GI50 (normal blood lymphocyte)/GI50 (RPMI-8226)): 15.21
- TGI (RPMI-8226; RPMI-8226 (Leukemia), 48 h, SRB): > 100 µM
- MG_MID, TGI (Breast Cancer subpanel; Breast Cancer panel mean): 37.0 µM
- GI50 (Breast Cancer subpanel; [4]): 24.6 µM
- CC50 (Breast Cancer subpanel; [5]): 84.6 µM
- SI (selectivity index), GI50 (Breast Cancer subpanel; [6]): 0.17
- SI (selectivity index), LC50 (Breast Cancer subpanel; [6]): 0.87
- SI (selectivity index), TGI (Breast Cancer subpanel; [6]): 1.10
- TI (Therapeutic Index) (Leukemia subpanel; GI50 (normal blood lymphocyte)/GI50 (Leukemia Panel)): 16.60
- GI50 (Leukemia subpanel; [4]): 2.95 µM
- CC50 (Leukemia subpanel; [5]): > 100 µM
- MG_MID, TGI (Leukemia subpanel; Leukemia panel mean): >100 µM
- SI (selectivity index), GI50 (Leukemia subpanel; [7]): 1.39
- SI (selectivity index), LC50 (Leukemia subpanel; [7]): <0.74
- SI (selectivity index), TGI (Leukemia subpanel; [7]): <0.41
- GI50 (Prostate Cancer subpanel; [4]): 2.3 µM
- CC50 (Prostate Cancer subpanel; [5]): 55.9 µM
- MG_MID, TGI (Prostate Cancer subpanel; Prostate Cancer panel mean): 6.27 µM
- SI (selectivity index), GI50 (Prostate Cancer subpanel; [8]): 1.78
- SI (selectivity index), LC50 (Prostate Cancer subpanel; [8]): 1.32
- SI (selectivity index), TGI (Prostate Cancer subpanel; [8]): 6.48
- GI50 (Ovarian Cancer subpanel; [4]): 3 µM
- CC50 (Ovarian Cancer subpanel; [5]): 84.5 µM
- MG_MID, TGI (Ovarian Cancer subpanel; Ovarian Cancer panel mean): 68.6 µM
- SI (selectivity index), GI50 (Ovarian Cancer subpanel; [9]): 1.36
- SI (selectivity index), LC50 (Ovarian Cancer subpanel; [9]): 0.87
- SI (selectivity index), TGI (Ovarian Cancer subpanel; [9]): 0.59
- GI50 (Melanoma subpanel; [4]): 2 µM
- CC50 (Melanoma subpanel; [5]): 50.6 µM
- MG_MID, TGI (Melanoma subpanel; Melanoma panel mean): 17.9 µM
- SI (selectivity index), GI50 (Melanoma subpanel; [10]): 2.05
- SI (selectivity index), LC50 (Melanoma subpanel; [10]): 1.46
- SI (selectivity index), TGI (Melanoma subpanel; [10]): 2.27
- GI50 [1, 4]: 13.1 µM
- CC50 [1, 5]: 92.9 µM
- MG_MID, TGI ([1]; Non-Small Cell Lung Cancer panel mean): 36.9 µM
- SI (selectivity index), GI50 [1, 11]: 0.31
- SI (selectivity index), LC50 [1, 11]: 0.80
- SI (selectivity index), TGI [1, 11]: 1.10
- GI50 (CNS Cancer subpanel; [4]): 2.18 µM
- CC50 (CNS Cancer subpanel; [5]): 7.21 µM
- SI (selectivity index), GI50 (CNS Cancer subpanel; [12]): 1.88
- SI (selectivity index), LC50 (CNS Cancer subpanel; [12]): 10.25
- SI (selectivity index), TGI (CNS Cancer subpanel; [12]): 11.53
- GI50 (Renal Cancer subpanel; [4]): 2.03 µM
- CC50 (Renal Cancer subpanel; [5]): 42.6 µM
- MG_MID, TGI (Renal Cancer subpanel; Renal Cancer panel mean): 27.8 µM
- SI (selectivity index), GI50 (Renal Cancer subpanel; [13]): 2.01
- SI (selectivity index), LC50 (Renal Cancer subpanel; [13]): 1.73
- SI (selectivity index), TGI (Renal Cancer subpanel; [13]): 1.46
- MG_MID, TGI (Colon Cancer subpanel; Colon Cancer panel mean): 18.7 µM
- GI50 (Colon Cancer subpanel; [4]): 2.19 µM
- CC50 (Colon Cancer subpanel; [5]): 67.4 µM
- SI (selectivity index), GI50 (Colon Cancer subpanel; [14]): 1.87
- SI (selectivity index), LC50 (Colon Cancer subpanel; [14]): 1.10
- SI (selectivity index), TGI (Colon Cancer subpanel; [14]): 2.17
- GI50 (EKVX): 2.59 µM
- CC50 (EKVX; read-out: LC50): > 100 µM
- GI50 (SK-MEL-2 [2]): 1.87 µM
- CC50 (SK-MEL-2 [2]; read-out: LC50): > 100 µM
- TGI (SK-MEL-2 [3]): 4.50 µM
- GI50 (M14; Homo sapiens, M14, 48 h): 2.53 µM
- CC50 (M14; Homo sapiens, M14, 48 h, read-out: LC50): > 100 µM
- TGI (M14; M14 (Melanoma), 48 h, SRB): > 100 µM
- GI50 (LOX IMVI): 1.64 µM
- CC50 (LOX IMVI; read-out: LC50): 6.46 µM
- TGI (HT-29; HT-29 (Colon Cancer), 48 h, SRB): 8.47 µM
- GI50 (HT-29; Homo sapiens, HT-29, 48 h): 2.84 µM
- CC50 (HT-29; Homo sapiens, HT-29, 48 h, read-out: LC50): > 100 µM
- GI50 (OVCAR-4; Homo sapiens, OVCAR-4, 48 h): 3.21 µM
- CC50 (OVCAR-4; Homo sapiens, OVCAR-4, 48 h, read-out: LC50): > 100 µM
- TGI (OVCAR-4; OVCAR-4 (Ovarian Cancer), 48 h, SRB): > 100 µM

Source: paper PMC8161026, “Synthesis and Anticancer Activity Evaluation of 5-[2-Chloro-3-(4-nitrophenyl)-2-propenylidene]-4-thiazolidinones” (Molecules, 2021)
